Experimental data from PubChem BioAssay (NCI).
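The concentration for 50% growth inhibition is given as GI50. Definition used: TGI = concentration required for complete inhibition of growth.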

Columns and labels:
Assay in all cases: growth of human tumour cells (NCI), 384-well format
[1] = system: U251 glioblastoma
[2] = system: SN12C renal
[3] = system: SF-295 CNS
[4] = system: MDA-MB-468 breast
[5] = system: ACHN renal
[6] = system: HL-60(TB) leukemia
[7] = system: NCI-H226 lung
[8] = system: TK-10 renal
[9] = system: HT29 colon
[10] = system: MCF7 breast
[11] = system: NCI/ADR-RES ovarian
[12] = system: HCT-116 colon
[13] = system: CAKI-1 renal
[14] = system: LOX IMVI melanoma
[15] = system: SF-539 CNS
[16] = system: A498 renal
[17] = system: RPMI-8226 leukemia
[18] = system: DU-145 prostate
[19] = system: MDA-MB-435 melanoma
[20] = system: KM12 colon
[21] = system: SF-268 CNS
[22] = system: HCC-2998 colon
[23] = system: NCI-H322M lung
[24] = system: HCT-15 colon
[25] = system: T-47D breast
[26] = system: UO-31 renal
[27] = system: NCI-H23 lung
[28] = system: 786-0 renal
[29] = system: SW-620 colon
[30] = system: SR leukemia
[31] = system: SK-MEL-28 melanoma
[32] = system: SNB-75 CNS
[33] = system: MOLT-4 leukemia
[34] = system: K-562 leukemia
[35] = system: OVCAR-4 ovarian
[36] = system: RXF 393 renal
[37] = system: NCI-H522 lung
[38] = system: EKVX NSCLC
[39] = system: OVCAR-8 ovarian
[40] = system: PC-3 prostate
[41] = system: UACC-62 melanoma
[42] = system: HOP-62 NSCLC
[43] = system: OVCAR-3 ovarian
[44] = system: COLO 205 colon
[45] = system: SK-MEL-5 melanoma
[46] = system: MDA-MB-231 breast
[47] = system: HOP-92 NSCLC

Compound: Cc1cc2c(cc1C)NC1=C(N2)OC(c2c3ccccc3cc3ccccc23)C1=O (centres undefined)
- GI50 [1]: 0.281 µM
- TGI [1]: 0.691 µM
- GI50 [2]: 0.652 µM
- TGI [2]: 4.13 µM
- GI50 [3]: 0.208 µM
- TGI [3]: 0.495 µM
- GI50 [4]: 0.218 µM
- TGI [4]: 0.436 µM
- GI50 [5]: 0.546 µM
- TGI [5]: 13.6 µM
- GI50 [6]: 0.212 µM
- TGI [6]: 0.363 µM
- GI50 [7]: 0.743 µM
- TGI [7]: 1.86 µM
- GI50 [8]: 0.548 µM
- TGI [8]: 7.54 µM
- GI50 [9]: 0.303 µM
- TGI [9]: 0.988 µM
- GI50 [10]: 0.397 µM
- TGI [10]: 1.91 µM
- GI50 [11]: 0.194 µM
- TGI [11]: 0.355 µM
- GI50 [12]: 0.286 µM
- TGI [12]: 0.759 µM
- GI50 [13]: 0.75 µM
- TGI [13]: 5.69 µM
- GI50 [14]: 0.361 µM
- TGI [14]: 1.35 µM
- GI50 [15]: 0.17 µM
- TGI [15]: 0.38 µM
- GI50 [16]: 0.319 µM
- TGI [16]: 0.924 µM
- GI50 [17]: 0.223 µM
- TGI [17]: 0.39 µM
- GI50 [18]: 0.429 µM
- TGI [18]: 1.43 µM
- GI50 [19]: 0.217 µM
- TGI [19]: 0.425 µM
- GI50 [20]: 0.31 µM
- TGI [20]: 0.964 µM
- GI50 [21]: 0.354 µM
- TGI [21]: 1.05 µM
- GI50 [22]: 0.688 µM
- TGI [22]: 1.57 µM
- GI50 [23]: 1.22 µM
- TGI [23]: 7.46 µM
- GI50 [24]: 0.261 µM
- TGI [24]: 0.711 µM
- GI50 [25]: 1.07 µM
- TGI [25]: 6.25 µM
- GI50 [26]: 1.94 µM
- TGI [26]: 9.3 µM
- GI50 [27]: 0.288 µM
- TGI [27]: 0.763 µM
- GI50 [28]: 0.261 µM
- TGI [28]: 0.63 µM
- GI50 [29]: 0.454 µM
- TGI [29]: 7.47 µM
- GI50 [30]: 0.189 µM
- TGI [30]: 0.34 µM
- GI50 [31]: 0.573 µM
- TGI [31]: 4.41 µM
- GI50 [32]: 0.381 µM
- TGI [32]: 1.23 µM
- GI50 [33]: 0.193 µM
- TGI [33]: 0.337 µM
- GI50 [34]: 0.208 µM
- TGI [34]: 0.491 µM
- GI50 [35]: 0.377 µM
- TGI [35]: 1.97 µM
- GI50 [36]: 0.285 µM
- TGI [36]: 0.513 µM
- GI50 [37]: 0.192 µM
- TGI [37]: 0.385 µM
- GI50 [38]: 0.431 µM
- TGI [38]: 6.44 µM
- GI50 [39]: 0.29 µM
- TGI [39]: 0.794 µM
- GI50 [40]: 0.422 µM
- TGI [40]: 1.44 µM
- GI50 [41]: 0.329 µM
- TGI [41]: 1.25 µM
- GI50 [42]: 0.325 µM
- TGI [42]: 0.825 µM
- GI50 [43]: 0.237 µM
- TGI [43]: 0.582 µM
- GI50 [44]: 0.786 µM
- TGI [44]: 1.68 µM
- GI50 [45]: 0.603 µM
- TGI [45]: 1.15 µM
- GI50 [46]: 0.554 µM
- TGI [46]: 2.81 µM
- GI50 [47]: 0.398 µM
- TGI [47]: 1.49 µM
